Source: BindingDB's records for doi:10.1021/np9704922 (University of Naples Federico II, 1998)

Assay: Inhibition of human synovial secretory PLA2

- IC50: 3.8 µM
SMILES: CC1(C)CCC[C@]2(C)[C@H]3CC[C@@H]4[C@H](O)O[C@@H](C5=CC(=O)OC5O)C[C@H]4[C@]3(C)CC[C@@H]12 (stereo partly specified) [Petrosaspongiolide P]
